# From paper PMC5613062 (Investigational New Drugs, 2017)
# How the values were obtained:
# [1] = set-up: method as in earlier work; conditions: ref IB; cited from earlier work
# [2] = set-up: method as in earlier work; conditions: cynomolgus monkeys dosed for up to one month; ref IB; cited from earlier work
# Ki67 = test system: Ki67; set-up: method as in Study ARRY-0401; conditions: 100 mg BD; ref Study ARRY-0401; cited from earlier work
# [3] = set-up: method as in earlier work; conditions: daily oral administration in SBE-CD for 1 month, rats; ref IB; cited from earlier work
# [4] = ref Study ARRY-0401, cited from earlier work
# tumor pERK = test system: tumor pERK; set-up: method as in Study ARRY-0401; conditions: 100 mg BD, Day 15 compared with pre-dose; 90% CI 50% to 93%; ref Study ARRY-0401; cited from earlier work
# cell viability = test system: cell viability; set-up: method as in earlier work; conditions: more active than parent; ref IB; cited from earlier work
# [5] = Pharmacokinetics alone and in combination, selumetinib + erlotinib arm; conditions: for tmax: median (range)
# Protocol: (§1) PK parameters were derived using non-compartmental analysis. Cmax and tmax were determined by visual inspection of the plasma concentration-time profiles. AUC(0–12) was calculated by the linear trapezoidal rule. Where more than one maximum occurred, the reported value was assigned to the first occurrence.
# ERK phosphorylation = test system: ERK phosphorylation; set-up: method as in earlier work; conditions: cultured cells; more active than parent; ref IB; cited from earlier work
# CYP1A2 = test system: CYP1A2; set-up: method as in earlier work; conditions: weak inhibition; ref IB; cited from earlier work
# [6] = Pharmacokinetics alone and in combination, selumetinib + temsirolimus arm; assay type: in vivo, human; conditions: for AUC(0–8) / AUC(0–12) / Cmax: geometric mean (% CV); for tmax: median (range)
# Protocol: as §1
# [7] = geometric mean (% CV), dosed alone, selumetinib 50 mg cohort (N = 14), erlotinib 100 mg QD
# [8] = geometric mean (% CV), dosed alone, selumetinib 75 mg cohort (N = 6), erlotinib 100 mg QD
# [9] = geometric mean (% CV), dosed in combination, selumetinib 50 mg BID (N = 12) + erlotinib 100 mg QD
# [10] = geometric mean (% CV), dosed in combination, selumetinib 75 mg BID (N = 6) + erlotinib 100 mg QD
# [11] = geometric mean, QD cohorts, dosed alone, selumetinib 50 mg cohort (N = 7), erlotinib 100 mg QD
# [12] = geometric mean, QD cohorts, dosed alone, selumetinib 100 mg cohort (N = 6), erlotinib 100 mg QD
# [13] = geometric mean, QD cohorts, dosed alone, selumetinib 150 mg cohort (N = 13), erlotinib 100 mg QD
# [14] = geometric mean, QD cohorts, in combination, selumetinib 50 mg (N = 6) + erlotinib 100 mg QD
# [15] = geometric mean, QD cohorts, in combination, selumetinib 100 mg (N = 6) + erlotinib 100 mg QD
# [16] = geometric mean, QD cohorts, in combination, selumetinib 150 mg (N = 12) + erlotinib 100 mg QD
# [17] = dosed alone, selumetinib 50 mg cohort (N = 25), temsirolimus 25 mg IV
# [18] = dosed alone, selumetinib 75 mg cohort (N = 6), temsirolimus 25 mg IV
# [19] = dosed in combination, selumetinib 50 mg BID (N = 22) + temsirolimus 25 mg IV
# [20] = dosed in combination, selumetinib 75 mg BID (N = 5) + temsirolimus 25 mg IV
smiles,measurement,setting,value
Cn1cnc2c(F)c(Nc3ccc(Br)cc3Cl)c(C(=O)NOCCO)cc21 [AZD6244 free-base],solubility,[1],limited solubility
same,tissue mineralization,[2],not apparent
same,patients with reduction in Ki67,Ki67,9/20
same,patients with reduction in Ki67 ≥50% of pre-dose,Ki67,5 patients
same,tolerability,[3],well tolerated
same,toxicity findings,[3],soft stools and gastrointestinal mucosal mineralization
same,patients with SD,"[4]; RECIST, as of 30 September 2006",17 patients
same,best overall response,[4]; RECIST,stable disease (SD)
same,patients with long term (≥5 months) SD,[4]; RECIST,9 patients
same,MTD,[4]; free-base mix and drink formulation,100 mg BD
same,"inhibition of tumor pERK, geometric mean",tumor pERK,81%
O=C(NOCCO)c1cc2nc[nH]c2c(F)c1Nc1ccc(Br)cc1Cl [N-desmethyl selumetinib],"activity relative to AZD6244 parent compound, inhibition of cell viability",cell viability,approximately 5 fold
same,AUC(0–8),[5]; [7],141.3 (41.79) [13] ng•h/mL
same,AUC(0–12),[5]; [7],173.4 (39.75) [12] ng•h/mL
same,Cmax,[5]; [7],41.69 (60.64) ng/mL
same,AUC(0–8),[5]; [8],195.9 (36.04) ng•h/mL
same,AUC(0–12),[5]; [8],223.9 (34.90) ng•h/mL
same,Cmax,[5]; [8],66.80 (75.74) ng/mL
same,AUC(0–8),[5]; [9],130.4 (39.09) ng•h/mL
same,AUC(0–12),[5]; [9],153.3 (39.37) ng•h/mL
same,Cmax,[5]; [9],43.37 (47.62) ng/mL
same,AUC(0–8),[5]; [10],227.5 (57.77) ng•h/mL
same,AUC(0–12),[5]; [10],262.7 (53.29) ng•h/mL
same,Cmax,[5]; [10],72.94 (91.01) ng/mL
same,AUC(0–8),[5]; [11],156 ng·h/mL
same,AUC(0–12),[5]; [11],181 ng·h/mL
same,Cmax,[5]; [11],45.6 ng/mL
same,AUC(0–8),[5]; [12],347 ng·h/mL
same,AUC(0–12),[5]; [12],401 ng·h/mL
same,Cmax,[5]; [12],109 ng/mL
same,AUC(0–8),[5]; [13],279 ng·h/mL
same,AUC(0–12),[5]; [13],331 ng·h/mL
same,Cmax,[5]; [13],79.6 ng/mL
same,AUC(0–8),[5]; [14],149 ng·h/mL
same,AUC(0–12),[5]; [14],181 ng·h/mL
same,Cmax,[5]; [14],44.5 ng/mL
same,AUC(0–8),[5]; [15],404 ng·h/mL
same,AUC(0–12),[5]; [15],454 ng·h/mL
same,Cmax,[5]; [15],129 ng/mL
same,AUC(0–8),[5]; [16],286 ng·h/mL
same,AUC(0–12),[5]; [16],344 ng·h/mL
same,Cmax,[5]; [16],68.3 ng/mL
same,tmax,"[5]; QD cohorts, dosed alone, selumetinib 50 mg cohort (N = 7), erlotinib 100 mg QD",1.50 (1.00–4.00) h
same,tmax,"[5]; QD cohorts, dosed alone, selumetinib 100 mg cohort (N = 6), erlotinib 100 mg QD",1.50 (1.50–4.00) h
same,tmax,"[5]; QD cohorts, dosed alone, selumetinib 150 mg cohort (N = 13), erlotinib 100 mg QD",1.50 (1.00–8.00) h
same,tmax,"[5]; QD cohorts, in combination, selumetinib 50 mg (N = 6) + erlotinib 100 mg QD",1.50 (1.50–8.00) h
same,tmax,"[5]; QD cohorts, in combination, selumetinib 100 mg (N = 6) + erlotinib 100 mg QD",1.50 (1.00–2.00) h
same,tmax,"[5]; QD cohorts, in combination, selumetinib 150 mg (N = 12) + erlotinib 100 mg QD",2.00 (1.00–4.00) h
same,tmax,"[5]; dosed alone, selumetinib 50 mg cohort (N = 14), erlotinib 100 mg QD",1.5 (1.0–12.0) h
same,tmax,"[5]; dosed alone, selumetinib 75 mg cohort (N = 6), erlotinib 100 mg QD",1.45 (1.0–2.0) h
same,tmax,"[5]; dosed in combination, selumetinib 50 mg BID (N = 12) + erlotinib 100 mg QD",1.25 (1.0–4.0) h
same,tmax,"[5]; dosed in combination, selumetinib 75 mg BID (N = 6) + erlotinib 100 mg QD",1.5 (1.0–2.0) h
same,PK parameters when administered alone and in combination,[5]; selumetinib + erlotinib arm,similar
same,plasma concentrations/exposure as % of AZD6244 concentrations/exposure,[4]; Part B of the study,≤ 10%
same,"activity relative to AZD6244 parent compound, inhibition of ERK phosphorylation",ERK phosphorylation,approximately 3 fold
same,IC50,CYP1A2,18.9 µM
same,AUC(0–8),[6]; [17],124.3 (80.50) ng•h/mL
same,AUC(0–12),[6]; [17],168.2 (54.21) [23] ng•h/mL
same,Cmax,[6]; [17],35.28 (109.00) ng/mL
same,AUC(0–8),[6]; [18],231.1 (68.07) ng•h/mL
same,AUC(0–12),[6]; [18],269.4 (62.60) ng•h/mL
same,Cmax,[6]; [18],75.34 (88.64) ng/mL
same,AUC(0–8),[6]; [19],129.4 (59.96) ng•h/mL
same,AUC(0–12),[6]; [19],168.2 (57.86) [14] ng•h/mL
same,Cmax,[6]; [19],38.51 (81.60) ng/mL
same,AUC(0–8),[6]; [20],167.8 (51.40) ng•h/mL
same,AUC(0–12),[6]; [20],190.5 (55.06) [4] ng•h/mL
same,Cmax,[6]; [20],48.36 (65.63) ng/mL
same,tmax,[6]; [17],1.5 (1.0–8.0) h
same,tmax,[6]; [18],1.5 (1.0–4.0) h
same,tmax,[6]; [19],2.0 (1.0–2.0) h
same,tmax,[6]; [20],2.0 (1.0–2.0) h
same,PK parameters when administered alone and in combination,[6]; selumetinib + temsirolimus arm,similar
